The target of assay [1] is Recombinant human ENPP3 protein (Homo sapiens (Human), UniProt O14638). The experiment in a line: ENPP3 cGAMP Biochemical Assay. The settings on record: 70.5 nM ENPP3, 120 μM 2′3′-cGAMP substrate, TR-FRET. How it is done:
ENPP3 cGAMP Biochemical Assay
Compounds were added to 384 well Proxiplate (PerkinElmer, Waltham MA) at 100 nl/well from DMSO stocks using Echo (Labcyte, San Jose CA). Recombinant human ENPP3 protein (Acro Biosystems, Newwark DE) was prepared in assay buffer (50 mM Tris pH7.5, 1 mM TCEP pH7.0, 2 mM MgCl2, 2 mM CaCl2), 2 mM ZnCl2 and 0.005% Tween20) and added at 2 μl/well. The plate was sealed, centrifuged at 1000 rpm for 1 minute and incubated at room temperature for 30 minutes before 2 μl substrate 2′3′-cGAMP (R&D Systems, Minneapolis MN) in assay buffer was added to each well to a final concentration of 70.5 nM ENPP3 and 120 μM 2′3′-cGAMP. The plate was sealed and centrifuged at 1000 rpm for 1 minute again. After incubation at 25° C. for 60 minutes, Terbium labelled AMP/GMP antibody and AMP/GMP HiLyte647 Tracer (BellBrook Labs, Fitchburg WI) in detection buffer (50 mM Tris pH7.5, 20 mM EDTA and 0.1% Prionex) were added to the reaction mixture to a final concentration of 475 nM and 3 nM respectively. The assay plate was incubated at room temperature for 120 minutes. TR-FRET signal was detected using Envision (PerkinElmer, Waltham MA).
Background: Time-resolved FRET reads energy transfer from a long-lived donor to a nearby acceptor.

Assay [2] has as its target Recombinant human ENPP1 protein (Homo sapiens (Human), UniProt P22413). Put plainly: ENPP1 cGAMP Biochemical Assay. The note with it: 0.5 nM ENPP1, 1000 nM 2′3′-cGAMP substrate, TR-FRET. How it is done:
ENPP1 cGAMP Biochemical Assay
Compounds were added to 384 well Proxiplate (PerkinElmer, Waltham MA) at 100 nl/well from DMSO stocks using Echo (Labcyte, San Jose CA). Recombinant human ENPP1 protein (R&D Systems, Minneapolis MN) was prepared in assay buffer (50 mM Tris pH7.5, 1 mM TCEP pH7.0, 2 mM MgCl2 and 0.005% Tween20) and added at 10 μl/well. The plate was sealed, centrifuged at 1000 rpm for 1 minute and incubated at room temperature for 30 minutes before 5 μl substrate 2′3′-cGAMP (R&D Systems, Minneapolis MN) in assay buffer was added to each well to a final concentration of 0.5 nM ENPP1 and 1000 nM 2′3′-cGAMP. The plate was sealed and centrifuged at 1000 rpm for 1 minute again. After incubation at 25° C. for 60 minutes, Terbium labelled AMP/GMP antibody and AMP/GMP HiLyte647 Tracer (BellBrook Labs, Fitchburg WI) in detection buffer (50 mM Tris pH7.5, 20 mM EDTA and 0.1% Prionex) were added to the reaction mixture to a final concentration of 2 nM (5 μl/well). The assay plate was incubated at room temperature for 120 minutes. TR-FRET signal was detected using Envision (PerkinElmer, Waltham MA).

Structures are written as SMILES.

Among the data in patent US20260049084A1, “ENPP1 MODULATORS AND PRODUCTS AND USES THEREOF” (Gossamer Bio Services, Inc., priority 2022, published 2026) are IC50 values, retold here.

Chain of Recombinant human ENPP3 protein (O14638 whole entry): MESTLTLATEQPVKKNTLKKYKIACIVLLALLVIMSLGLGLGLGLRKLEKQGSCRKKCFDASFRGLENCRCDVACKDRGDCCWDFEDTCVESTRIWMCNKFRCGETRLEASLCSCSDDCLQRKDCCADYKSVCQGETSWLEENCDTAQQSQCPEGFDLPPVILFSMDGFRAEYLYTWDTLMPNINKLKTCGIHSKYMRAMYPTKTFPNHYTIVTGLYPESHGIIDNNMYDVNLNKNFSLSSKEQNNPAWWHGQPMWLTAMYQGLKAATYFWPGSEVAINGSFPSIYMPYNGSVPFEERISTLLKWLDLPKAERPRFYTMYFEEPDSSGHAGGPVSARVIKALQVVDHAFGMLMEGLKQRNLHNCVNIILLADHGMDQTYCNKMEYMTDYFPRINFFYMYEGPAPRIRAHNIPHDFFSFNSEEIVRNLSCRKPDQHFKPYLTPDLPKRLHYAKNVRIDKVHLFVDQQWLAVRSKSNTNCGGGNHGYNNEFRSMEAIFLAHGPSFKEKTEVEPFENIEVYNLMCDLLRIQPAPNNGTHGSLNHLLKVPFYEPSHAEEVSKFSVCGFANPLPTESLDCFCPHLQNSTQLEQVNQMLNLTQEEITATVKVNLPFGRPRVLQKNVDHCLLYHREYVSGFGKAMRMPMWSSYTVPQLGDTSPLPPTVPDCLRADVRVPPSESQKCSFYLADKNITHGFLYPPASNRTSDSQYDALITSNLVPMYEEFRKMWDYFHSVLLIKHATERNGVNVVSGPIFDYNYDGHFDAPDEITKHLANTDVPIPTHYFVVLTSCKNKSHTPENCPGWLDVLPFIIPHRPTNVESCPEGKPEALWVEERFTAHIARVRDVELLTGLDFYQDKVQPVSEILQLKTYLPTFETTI
Chain of Recombinant human ENPP1 protein (P22413 whole entry): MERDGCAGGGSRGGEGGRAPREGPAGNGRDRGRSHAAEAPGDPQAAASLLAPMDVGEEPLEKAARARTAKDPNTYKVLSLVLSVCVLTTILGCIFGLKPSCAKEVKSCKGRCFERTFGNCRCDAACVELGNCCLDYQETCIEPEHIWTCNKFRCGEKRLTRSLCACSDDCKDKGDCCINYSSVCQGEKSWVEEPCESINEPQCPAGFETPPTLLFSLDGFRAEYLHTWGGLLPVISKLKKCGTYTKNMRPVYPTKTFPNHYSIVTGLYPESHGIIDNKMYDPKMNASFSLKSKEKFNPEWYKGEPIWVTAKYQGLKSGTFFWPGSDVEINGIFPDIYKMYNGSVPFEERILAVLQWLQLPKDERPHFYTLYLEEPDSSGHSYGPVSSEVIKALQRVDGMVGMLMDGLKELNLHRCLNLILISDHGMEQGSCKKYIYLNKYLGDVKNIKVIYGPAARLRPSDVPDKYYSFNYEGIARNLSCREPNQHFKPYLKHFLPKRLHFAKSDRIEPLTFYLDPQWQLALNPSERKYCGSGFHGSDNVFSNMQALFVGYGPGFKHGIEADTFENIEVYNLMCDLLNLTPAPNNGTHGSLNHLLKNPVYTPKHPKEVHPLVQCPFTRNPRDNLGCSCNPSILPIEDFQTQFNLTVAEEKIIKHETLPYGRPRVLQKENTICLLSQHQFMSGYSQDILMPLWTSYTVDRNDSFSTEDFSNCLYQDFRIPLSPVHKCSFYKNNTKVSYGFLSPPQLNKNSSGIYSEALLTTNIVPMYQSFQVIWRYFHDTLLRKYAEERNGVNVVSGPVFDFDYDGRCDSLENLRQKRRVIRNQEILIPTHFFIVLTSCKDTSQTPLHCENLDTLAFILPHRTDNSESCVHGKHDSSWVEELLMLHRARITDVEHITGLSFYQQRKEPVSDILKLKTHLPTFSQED

Consider `C#CCn1nc(Cl)c2c(NCC3CCN([S@@](C)(=N)=O)CC3)ccnc21` [Compound 13C, (R)-3-chloro-N-((1-(S-methylsulfonimidoyl)piperidin-4-yl)methyl)-1-(prop-2-yn-1-yl)-1H-pyrazolo[3,4-b]pyridin-4-amine], for which the IC50 (in general, the concentration that gives 50% inhibition) was at least 1000 nM in assay [1] and under 10 nM in assay [2].
The corresponding values for `CCn1nc(Cl)c2c(NCC3CCN(S(=N)(=O)CCC(=O)O)CC3)ccnc21` (stereo not drawn) [Compound 14F, 3-(4-(((3-chloro-1-ethyl-1H-pyrazolo[3,4-b]pyridin-4-yl)amino)methyl)piperidine-1-sulfonimidoyl)propanoic acid] are 100 to 1000 nM and under 10 nM.
As for `C#CCn1nc(Cl)c2c(NCC3CCN([S@](C)(=O)=NC#N)CC3)ccnc21` [Compound 14J, (R)-N-((4-(((3-chloro-1-(prop-2-yn-1-yl)-1H-pyrazolo[3,4-b]pyridin-4-yl)amino)methyl)piperidin-1-yl)(methyl)(oxo)-λ6-sulfaneylidene)cyanamide], the IC50 was at least 1000 nM in assay [1] and 100 to 1000 nM in assay [2].
Consider `C#CCn1nc(Cl)c2c(NCC3CCN(S(=N)(N)=O)CC3)ccnc21` (stereo not drawn) [Compound 15I, 4-(((3-chloro-1-(prop-2-yn-1-yl)-1H-pyrazolo[3,4-b]pyridin-4-yl)amino)methyl)piperidine-1-sulfonimidamide], for which the IC50 is 100 to 1000 nM in assay [1] and under 10 nM in assay [2].
On to `CS(=N)(=O)N1CCC(CNc2ccnc3c2c(Cl)nn3CC#N)CC1` (stereo not drawn) [Compound 13D, 2-(3-chloro-4-(((1-(S-methylsulfonimidoyl)piperidin-4-yl)methyl)amino)-1H-pyrazolo[3,4-b]pyridin-1-yl)acetonitrile], for which the results for the IC50 in assay [1] and in assay [2] were 10 to 100 nM and under 10 nM, respectively.
For the molecule `CCn1nc(Cl)c2c(NCC3CCN([S@@](=N)(=O)CCOC)CC3)ccnc21` [Compound 14C, (R)-3-chloro-1-ethyl-N-((1-(2-methoxyethylsulfonimidoyl)piperidin-4-yl)methyl)-1H-pyrazolo[3,4-b]pyridin-4-amine], the IC50 in assay [1] is at least 1000 nM; in assay [2] it was 10 to 100 nM.
With `C#CCn1nc(Cl)c2c(NCc3ccc(S(=N)(N)=O)cc3)ccnc21` (stereo not drawn) [Compound 11A, 4-(((3-chloro-1-(prop-2-yn-1-yl)-1H-pyrazolo[3,4-b]pyridin-4-yl)amino)methyl)benzenesulfonimidamide], the IC50 is 10 to 100 nM in assay [1] and under 10 nM in assay [2].
The corresponding values for `C#CCn1nc(Cl)c2c(N(C)Cc3ccc(S(C)(=N)=O)cc3)ccnc21` (stereo not drawn) [Compound 9A, (4-(((3-chloro-1-(prop-2-yn-1-yl)-1H-pyrazolo [3,4-b]pyridin-4-yl)(methyl)amino)methyl)phenyl)(imino)(methyl)-λ^6-sulfanone] are 10 to 100 nM and under 10 nM.
Regarding `CCn1ncc2c(NCc3ccc(S(N)(=O)=NC#N)cc3)ccnc21` (stereo not drawn) [Compound 3D, N′-cyano-4-(((1-ethyl-1H-pyrazolo[3,4-b]pyridin-4-yl)amino)methyl)benzenesulfonimidamide], the IC50 in assay [1] is 100 to 1000 nM; in assay [2] it was under 10 nM.
As for `C#CCn1nc(Cl)c2c(NCc3ccc(S(=N)(=O)NC)cc3)ccnc21` (stereo in doubt) [Compound 10B, (R)-4-(((3-chloro-1-(prop-2-yn-1-yl)-1H-pyrazolo[3,4-b]pyridin-4-yl)amino)methyl)-N-methylbenzenesulfonimidamide], the IC50 in assay [1] is at least 1000 nM; in assay [2] it was under 10 nM.
With `C#CCn1nc(Cl)c2c(NCc3ccc(S(C)(=O)=NC)cc3)ccnc21` (stereo not drawn) [Compound 10A, (4-(((3-chloro-1-(prop-2-yn-1-yl)-1H-pyrazolo[3,4-b]pyridin-4-yl)amino)methyl)phenyl)(methyl)(methylimino)-λ6-sulfanone], the IC50 in assay [1] is at least 1000 nM; in assay [2], 100 to 1000 nM.
`CCn1ncc2c(NCc3ccc([S@@](N)(=O)=NC)cc3)ccnc21` [Compound 3E, (S)-4-(((1-ethyl-1H-pyrazolo[3,4-b]pyridin-4-yl)amino)methyl)-N′-methylbenzenesulfonimidamide]: the IC50 in assay [1] is at least 1000 nM; in assay [2], under 10 nM.
The corresponding values for `CCn1nc(Cl)c2c(Nc3ccc(S(N)(=O)=NC4CC4)cc3)ccnc21` (stereo not drawn) [Compound 5I, 4-((3-chloro-1-ethyl-1H-pyrazolo[3,4-b]pyridin-4-yl)amino)-N′-cyclopropylbenzenesulfonimidamide] are at least 1000 nM and under 10 nM.
Consider `C#CCn1nc(Cl)c2c(N(C)Cc3ccc([S@](C)(=N)=O)cc3)ccnc21` [Compound 9B, (R)-(4-(((3-chloro-1-(prop-2-yn-1-yl)-1H-pyrazolo[3,4-b]pyridin-4-yl)(methyl)amino)methyl)phenyl)(imino)(methyl)-λ^6-sulfanone], for which the IC50 in assay [1] was 10 to 100 nM; in assay [2], under 10 nM.
For `C#CCn1nc(Cl)c2c(NCc3ccc([S@@](C)(=N)=O)cc3)ccnc21` [Compound 6B, (S)-(4-(((3-chloro-1-(prop-2-yn-1-yl)-1H-pyrazolo[3,4-b]pyridin-4-yl)amino)methyl)phenyl)(imino)(methyl)-λ^6-sulfanone], the IC50 in assay [1] was 10 to 100 nM; in assay [2], under 10 nM.
As to `C#CCn1nc(Cl)c2c(NCc3ccc(S(=N)(=O)NC)cc3)ccnc21` (stereo in doubt) [Compound 10C, (S)-4-(((3-chloro-1-(prop-2-yn-1-yl)-1H-pyrazolo[3,4-b]pyridin-4-yl)amino)methyl)-N-methylbenzenesulfonimidamide], the IC50 in assay [1] was 10 to 100 nM; in assay [2], under 10 nM.
Turning to `C[S@](=N)(=O)c1ccc(CNc2ccnc3c2c(Cl)nn3CC#N)cc1` [Compound 9G, (S)-2-(3-chloro-4-((4-(S-methylsulfonimidoyl)benzyl)amino)-1H-pyrazolo[3,4-b]pyridin-1-yl) acetonitrile], the results for the 50% inhibitory concentration (IC50) in assay [1] and in assay [2] were at least 1000 nM and 100 to 1000 nM, respectively.
Take `CCn1ncc2c(NCc3ccc(S(=N)(N)=O)cc3)ncnc21` (stereo not drawn) [Compound 2D, 4-(((1-ethyl-1H-pyrazolo[3,4-d]pyrimidin-4-yl)amino)methyl)benzenesulfonimidamide]: the IC50 is at least 1000 nM in assay [1] and 10 to 100 nM in assay [2].
On the same counts, the results for `C#CCn1nc(Cl)c2c(N(C)Cc3ccc(S(N)(=O)=NC)cc3)ccnc21` (stereo not drawn) [Compound 3C, 4-(((3-chloro-1-(prop-2-yn-1-yl)-1H-pyrazolo[3,4-b]pyridin-4-yl)(methyl)amino)methyl)-N′-methylbenzenesulfonimidamide] are 100 to 1000 nM and under 10 nM.
As to `CCn1nc(Cl)c2c(NCC3CCN(S(=N)(=O)CCOC)CC3)ccnc21` (stereo not drawn) [Compound 14B, 3-chloro-1-ethyl-N-((1-(2-methoxyethylsulfonimidoyl)piperidin-4-yl)methyl)-1H-pyrazolo[3,4-b]pyridin-4-amine], the IC50 in assay [1] was at least 1000 nM; in assay [2] it was 10 to 100 nM.
The corresponding values for `CCn1ncc2c(NCc3ccc([S@](N)(=O)=NC)cc3)ccnc21` [Compound 3F, (R)-4-(((1-ethyl-1H-pyrazolo[3,4-b]pyridin-4-yl)amino)methyl)-N′-methylbenzenesulfonimidamide] are at least 1000 nM and 100 to 1000 nM.
Turning to `CCn1nc(Cl)c2c(NCc3ccc(S(N)(=O)=NC#N)cc3)ccnc21` (stereo not drawn) [Compound 12F, 4-(((3-chloro-1-ethyl-1H-pyrazolo[3,4-b]pyridine-4-yl)amino)methyl)-N′-cyano benzenesulfonimidamide], the figures for the IC50 in assay [1] and in assay [2] were 10 to 100 nM and under 10 nM, respectively.
Consider `C[S@@](=N)(=O)c1ccc(CNc2ccnc3c2c(Cl)nn3CC#N)cc1` [Compound 9H, (R)-2-(3-chloro-4-((4-(S-methylsulfonimidoyl)benzyl)amino)-1H-pyrazolo[3,4-b]pyridin-1-yl)acetonitrile], for which the IC50 was 10 to 100 nM in assay [1] and under 10 nM in assay [2].
For `CCn1nc(Cl)c2c(NCC3CCN(S(=N)(N)=O)CC3)ccnc21` (stereo not drawn) [Compound 1C, 4-(((3-chloro-1-ethyl-1H-pyrazolo[3,4-b]pyridin-4-yl)amino)methyl)piperidine-1-sulfonimidamide], the 50% inhibitory concentration (IC50) in assay [1] is at least 1000 nM; in assay [2] it was 10 to 100 nM.
